Values quoted from earlier work, collected in patent US20080138409A1, “OLANZAPINE PHARMACEUTICAL COMPOSITION” (priority 2006, published 2008).

Conditions: pH 6.8; free base

Question: Which solubility does the source give for `Cc1cc2c(s1)Nc1ccccc1N=C2N1CCN(C)CC1` [Olanzapine] here?
Answer: about 0.02 mg/ml
